Measured values reported in ChEMBL document CHEMBL3885881, “DrugMatrix”.

Species on record: Rattus norvegicus
Test: DrugMatrix - Regimen: Daily Repeat
Type: toxicity, organism-based, Sprague-Dawley
Set-up: regimen Daily Repeat, gender Male, age 6-8 weeks
Conditions: in vivo, po, route oral GAVAGE, vehicle 100 % WATER; for ABSOLUTE BASOPHIL / ABSOLUTE EOSINOPHIL / ABSOLUTE LYMPHOCYTE / ABSOLUTE MONOCYTE / ABSOLUTE SEGMENTED NEUTROPHIL / BASOPHIL / EOSINOPHIL / ERYTHROCYTE COUNT / HEMATOCRIT / HEMOGLOBIN / LEUKOCYTE COUNT / LYMPHOCYTE / MEAN CORPUSCULAR HEMOGLOBIN / MEAN CORPUSCULAR HEMOGLOBIN CONCENTRATION / MEAN CORPUSCULAR VOLUME / MONOCYTE / NEUTROPHIL / NUCLEATED RED BLOOD CELLS / PLATELET COUNT: tissue Blood; for ALANINE AMINOTRANSFERASE / ALBUMIN / ALKALINE PHOSPHATASE / ASPARTATE AMINOTRANSFERASE / BLOOD UREA NITROGEN / CARBON DIOXIDE / CHLORIDE / CHOLESTEROL / CREATINE PHOSPHOKINASE / CREATININE / GLUCOSE / LACTATE DEHYDROGENASE / LIPASE / PHOSPHORUS / SODIUM / TOTAL BILIRUBIN / TOTAL PROTEIN / URIC ACID: tissue Plasma
[1] = 100 mg/kg, 120 h, dose level Low, time 5 day
[2] = 500 mg/kg, 72 h, dose level High, time 3 day
[3] = 500 mg/kg, 120 h, dose level High, time 5 day

In the case of `CCN(CC)C(=S)SSC(=S)N(CC)CC`, the “ABSOLUTE BASOPHIL” value [1] is reported as 0 CELLS/uL, the “ABSOLUTE EOSINOPHIL” value [1] is reported as 0 CELLS/uL and the “ABSOLUTE LYMPHOCYTE” value [1] is reported as 13796 CELLS/uL. For the same compound, the “ABSOLUTE MONOCYTE” value [1] was 155.67 CELLS/uL, the “ABSOLUTE SEGMENTED NEUTROPHIL” value [1] was 1615 CELLS/uL and the BASOPHIL [1] was 0%. For the same compound, the EOSINOPHIL [1] was 0%, the “ERYTHROCYTE COUNT” value [1] was 5.47 x10E6/uL and the HEMATOCRIT [1] was 33.87%. The HEMOGLOBIN [1] was 13.53 G/DL, the “LEUKOCYTE COUNT” value [1] was 15.57 x10E3/uL and the LYMPHOCYTE [1] was 89%. The “MEAN CORPUSCULAR HEMOGLOBIN” value [1] was 24.8 pg, the “MEAN CORPUSCULAR HEMOGLOBIN CONCENTRATION” value [1] was 39.97 G/DL and the “MEAN CORPUSCULAR VOLUME” value [1] was 62 fL. For the same compound, the MONOCYTE [1] was 1%, the NEUTROPHIL [1] was 10% and the “NUCLEATED RED BLOOD CELLS” value [1] was 0 /100WBC. For the same compound, the “PLATELET COUNT” value [1] was 1356.33 x10E3/uL, the “ALANINE AMINOTRANSFERASE” value [1] was 42.67 u/L and the ALBUMIN [1] was 4.1 G/DL. The “ALKALINE PHOSPHATASE” value [1] was 265.33 u/L, the “ASPARTATE AMINOTRANSFERASE” value [1] was 70 u/L and the “BLOOD UREA NITROGEN” value [1] was 15.33 mg/dL. For the same compound, the “CARBON DIOXIDE” value [1] was 31.67 mmol/L, the CHLORIDE [1] was 102.67 MEQ/L and the CHOLESTEROL [1] was 83.67 mg/dL. The “CREATINE PHOSPHOKINASE” value [1] was 216.33 u/L, the CREATININE [1] was 0.15 mg/dL and the GLUCOSE [1] was 123.67 mg/dL. The “LACTATE DEHYDROGENASE” value [1] was 231 u/L, the LIPASE [1] was 11.33 u/L and the PHOSPHORUS [1] was 11.73 mg/dL. The SODIUM [1] was 145.07 MEQ/L, the “TOTAL BILIRUBIN” value [1] was 0.2 mg/dL and the “TOTAL PROTEIN” value [1] was 6 G/DL. For the same compound, the “URIC ACID” value [1] was 1.37 mg/dL, the “ABSOLUTE BASOPHIL” value [2] was 0 CELLS/uL and the “ABSOLUTE EOSINOPHIL” value [2] was 32 CELLS/uL. For the same compound, the “ABSOLUTE LYMPHOCYTE” value [2] was 16158.67 CELLS/uL, the “ABSOLUTE MONOCYTE” value [2] was 362.67 CELLS/uL and the “ABSOLUTE SEGMENTED NEUTROPHIL” value [2] was 2246.67 CELLS/uL. For the same compound, the BASOPHIL [2] was 0%, the EOSINOPHIL [2] was 0.33% and the “ERYTHROCYTE COUNT” value [2] was 5.54 x10E6/uL. For the same compound, the HEMATOCRIT [2] was 34.57%, the HEMOGLOBIN [2] was 13.7 G/DL and the “LEUKOCYTE COUNT” value [2] was 18.8 x10E3/uL. For the same compound, the LYMPHOCYTE [2] was 85%, the “MEAN CORPUSCULAR HEMOGLOBIN” value [2] was 24.73 pg and the “MEAN CORPUSCULAR HEMOGLOBIN CONCENTRATION” value [2] was 39.63 G/DL. For the same compound, the “MEAN CORPUSCULAR VOLUME” value [2] was 62.43 fL, the MONOCYTE [2] was 2.33% and the NEUTROPHIL [2] was 12.33%. The “NUCLEATED RED BLOOD CELLS” value [2] was 0 /100WBC, the “PLATELET COUNT” value [2] was 1410.67 x10E3/uL and the “ALANINE AMINOTRANSFERASE” value [2] was 78.33 u/L. For the same compound, the ALBUMIN [2] was 3.87 G/DL, the “ALKALINE PHOSPHATASE” value [2] was 211.67 u/L and the “ASPARTATE AMINOTRANSFERASE” value [2] was 279.33 u/L. The “BLOOD UREA NITROGEN” value [2] was 11.33 mg/dL, the “CARBON DIOXIDE” value [2] was 30.33 mmol/L and the CHLORIDE [2] was 102.33 MEQ/L. The CHOLESTEROL [2] was 124 mg/dL, the “CREATINE PHOSPHOKINASE” value [2] was 747.67 u/L and the CREATININE [2] was 0.15 mg/dL. The GLUCOSE [2] was 121.33 mg/dL, the “LACTATE DEHYDROGENASE” value [2] was 433.33 u/L and the LIPASE [2] was 11.33 u/L. For the same compound, the PHOSPHORUS [2] was 10.77 mg/dL, the SODIUM [2] was 143.53 MEQ/L and the “TOTAL BILIRUBIN” value [2] was 0.13 mg/dL. For the same compound, the “TOTAL PROTEIN” value [2] was 5.93 G/DL, the “URIC ACID” value [2] was 1.53 mg/dL and the “ABSOLUTE BASOPHIL” value [3] was 0 CELLS/uL. The “ABSOLUTE EOSINOPHIL” value [3] was 134 CELLS/uL, the “ABSOLUTE LYMPHOCYTE” value [3] was 14987.33 CELLS/uL and the “ABSOLUTE MONOCYTE” value [3] was 0 CELLS/uL. For the same compound, the “ABSOLUTE SEGMENTED NEUTROPHIL” value [3] was 1378.67 CELLS/uL, the BASOPHIL [3] was 0% and the EOSINOPHIL [3] was 0.67%. The “ERYTHROCYTE COUNT” value [3] was 4.95 x10E6/uL, the HEMATOCRIT [3] was 30.57% and the HEMOGLOBIN [3] was 12.3 G/DL. For the same compound, the “LEUKOCYTE COUNT” value [3] was 16.5 x10E3/uL, the LYMPHOCYTE [3] was 90.33% and the “MEAN CORPUSCULAR HEMOGLOBIN” value [3] was 24.83 pg. For the same compound, the “MEAN CORPUSCULAR HEMOGLOBIN CONCENTRATION” value [3] was 40.2 G/DL, the “MEAN CORPUSCULAR VOLUME” value [3] was 61.67 fL and the MONOCYTE [3] was 0%. The NEUTROPHIL [3] was 9%, the “NUCLEATED RED BLOOD CELLS” value [3] was 0 /100WBC and the “PLATELET COUNT” value [3] was 1031.33 x10E3/uL. The “ALANINE AMINOTRANSFERASE” value [3] was 55 u/L, the ALBUMIN [3] was 3.83 G/DL and the “ALKALINE PHOSPHATASE” value [3] was 254 u/L. The “ASPARTATE AMINOTRANSFERASE” value [3] was 134.33 u/L, the “BLOOD UREA NITROGEN” value [3] was 16.33 mg/dL and the “CARBON DIOXIDE” value [3] was 27 mmol/L. For the same compound, the CHLORIDE [3] was 102.67 MEQ/L, the CHOLESTEROL [3] was 109 mg/dL and the “CREATINE PHOSPHOKINASE” value [3] was 292.67 u/L. For the same compound, the CREATININE [3] was 0.16 mg/dL, the GLUCOSE [3] was 155.33 mg/dL and the “LACTATE DEHYDROGENASE” value [3] was 217.33 u/L. For the same compound, the LIPASE [3] was 11.33 u/L, the PHOSPHORUS [3] was 12 mg/dL and the SODIUM [3] was 141.9 MEQ/L. For the same compound, the “TOTAL BILIRUBIN” value [3] was 0.17 mg/dL, the “TOTAL PROTEIN” value [3] was 6 G/DL and the “URIC ACID” value [3] was 1.6 mg/dL.
